Results taken from patent US20240360133A1, “FUSED TRICYCLIC COMPOUND, PREPARATION METHOD THEREFOR AND APPLICATION THEREOF IN MEDICINE” (Jiangsu Hengrui Pharmaceuticals Co., Ltd., priority 2020, published 2024).

Each molecule was assayed against T1, human TLR9 (Homo sapiens, UniProt Q9NR96) (assay: Inhibitory effect on human TLR9 activation pathway (HEK-Blue hTLR9 SEAP reporter)). Conditions: HEK-Blue hTLR9 cells, 1 μM CpG ODN2006, 20 h, SEAP OD620.
T1 construct: host or cells: HEK-Blue hTLR9 (HEK293)
T1 sequence (Q9NR96 26-1032): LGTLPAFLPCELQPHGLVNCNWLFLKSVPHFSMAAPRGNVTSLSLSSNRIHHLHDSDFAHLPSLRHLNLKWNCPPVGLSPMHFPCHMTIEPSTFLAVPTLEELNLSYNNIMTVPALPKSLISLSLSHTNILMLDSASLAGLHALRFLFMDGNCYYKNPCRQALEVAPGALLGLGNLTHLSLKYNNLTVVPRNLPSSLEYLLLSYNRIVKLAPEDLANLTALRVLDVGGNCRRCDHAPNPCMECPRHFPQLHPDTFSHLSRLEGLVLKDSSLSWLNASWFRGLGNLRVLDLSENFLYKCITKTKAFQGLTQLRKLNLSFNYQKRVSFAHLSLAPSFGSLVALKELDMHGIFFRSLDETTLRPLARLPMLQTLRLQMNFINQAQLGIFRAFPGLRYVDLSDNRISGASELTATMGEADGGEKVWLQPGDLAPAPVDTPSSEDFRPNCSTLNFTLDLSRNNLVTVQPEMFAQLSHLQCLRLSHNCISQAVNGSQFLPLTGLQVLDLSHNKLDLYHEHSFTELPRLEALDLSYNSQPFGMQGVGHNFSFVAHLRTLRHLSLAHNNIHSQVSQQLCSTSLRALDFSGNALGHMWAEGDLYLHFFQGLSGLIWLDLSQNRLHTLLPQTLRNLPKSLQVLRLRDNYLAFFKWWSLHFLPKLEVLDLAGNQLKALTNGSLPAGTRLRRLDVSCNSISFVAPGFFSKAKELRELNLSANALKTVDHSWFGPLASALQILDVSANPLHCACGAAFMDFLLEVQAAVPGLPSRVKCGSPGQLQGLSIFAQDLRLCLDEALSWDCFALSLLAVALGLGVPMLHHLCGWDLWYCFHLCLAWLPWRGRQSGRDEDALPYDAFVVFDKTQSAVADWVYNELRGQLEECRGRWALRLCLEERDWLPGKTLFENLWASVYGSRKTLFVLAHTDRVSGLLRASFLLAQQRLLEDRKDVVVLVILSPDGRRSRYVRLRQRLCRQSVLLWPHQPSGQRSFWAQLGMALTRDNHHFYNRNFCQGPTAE
Type: cell-based
Description: • 1. HEK-Blue™ hTLR9 cell (Invivogen) • 2. CpG ODN2006 (Invivogen) • 3. Alkaline phosphatase detection medium (Quanti-Blue Detection. Invivogen) • 4. Blasticidin (Invivogen) • 5. Zeocin (Invivogen) • 6. Normocin (Invivogen) • 7. DMEM/HIGH Glucose (GE Healthcare) • 8. Fetal bovine serum (FBS, Gibco) • 9. Phosphate-buffered saline (Shanghai BasalMedia Technologies Co., Ltd.) • 10. Sterile purified water (made in-house by Shanghai Hengrui) • 11. 15 mL centrifuge tube (Corning) • 12. 96-well formulating plate (Corning) • 13. 96-well fat-bottom cell culture plate (Corning) • 14. Constant-temperature cell incubator (Thermo scientific) • 15. Constant-temperature incubator (Shanghai Yiheng Scientific Instruments Co., Ltd.) • 16. PHERAstar FS microplate reader (BMG Labtech)
HEK-Blue™ hTLR9 cells were purchased from Invivogen. These cells are HEK293 cells transfected with the human Toll-like receptor 9 (TLR9) gene and the secreted alkaline phosphatase reporter gene (SEAP). The alkaline phosphatase reporter gene (SEAP) is under the regulation of the IFN-β minimal promoter comprising 5 NF-kB and AP-1 binding sites. Upon activation of TLR9 with an agonist, SEAP secretion is induced via downstream NF-kB and AP-1. Ater addition of an antagonist compound, the pathway described above is inhibited, and SEAP secretion is reduced. The activity of the compounds for the TLR9 pathway was evaluated by measuring OD620 through the SEAP substrate.
20 mM test compounds dissolved in 100% DMSO were serially diluted with 100% DMSO to 2000, 400, 80, 16, 3.2, 0.64, 0.128, 0.0256 IM, with blank wells containing 100% DMSO. […] The cells were cultured at 37° C. for 1-2 min, dispersed by pipetting, transferred to a 15 mL centrifuge tube, and counted, and the cell density was adjusted to 4.8×10^5/mL with the DMEM/HIGH glucose medium containing 10% inactivated FBS. […] Then the OD620 absorbance readings were taken on a microplate reader. The inhibition rate was calculated using the following formula: […]

| IC50 | SMILES |
| --- | --- |
| 0.087 µM | Cc1cc(-c2[nH]c3cc4c(nc3c2C(C)C)CN(Cc2ccc(N3CCNCC3)cn2)CC4)cc(C)n1 [Example 5, 2-(2,6-Dimethylpyridin-4-yl)-3-isopropyl-6-((5-(piperazin-1-yl)pyridin-2-yl)methyl)-5,6,7,8-tetrahydro-1H-pyrrolo[3,2-b][1,7]naphthyridine] |
| 0.074 µM | Cc1cc(-c2[nH]c3cc4c(nc3c2C(C)C)CN(CCc2ccc(N3CCNCC3)nc2)CC4)cc(C)n1 [Example 4, 2-(2,6-Dimethylpyridin-4-yl)-3-isopropyl-6-(2-(6-(piperazin-4-yl)pyridin-3-yl)ethyl)-5,6,7,8-tetrahydro-1H-pyrrolo[3,2-b][1,7]naphthyridine] |
| 0.09 µM | Cc1cc(-c2[nH]c3cc4c(nc3c2C(C)C)CN(CC23CCC(N)(CC2)CC3)CC4)cc(C)n1 [Example 7, 4-((2-(2,6-Dimethylpyridin-4-yl)-3-isopropyl-1,5,7,8-tetrahydro-6H-pyrrolo[3,2-b][1,7]naphthyridin-6-yl)methyl)bicyclo[2.2.2]octyl-1-amine] |
